{"source": "patent US8623832B2", "about": "“Peptide compositions that bind TLR-4” (The Board of Regents of the University of Oklahoma, priority 2011, dated 2014)", "key": {"[1]": {"tested_on": "DSS-colitis", "test": "Dextran sodium sulfate (DSS)-colitis model in mice", "assay_type": "in vivo", "conditions": "3% DSS 7 days, SPA4 100 μg daily intraperitoneal", "method": "SPA4 peptide reduced serum TNF-α and inflammation in Dextran sodium sulfate (DSS)-colitis model in mice (FIG. 18). SPA4 peptide was also evaluated in the mouse model of DSS-colitis. DSS (3% in drinking water) was given to the mice for a period of 7 days. In the treatment group, mice were simultaneously injected with SPA4 peptide (100 μg daily via intraperitoneal route). After 2 days of recovery period, the mice were weighed, colons were macroscopically examined, and blood samples were harvested. The TNF-α levels were measured by ELISA."}, "[2]": {"tested_on": "NF-κB pathway molecules (IKBα, phosphorylated IKBα, p65, phosphorylated p65, RelB, COX-2)", "test": "Expression of NF-κB pathway molecules in SW480 cell lysates by immunoblotting", "assay_type": "cell-based, human", "method": "Expression of NF-κB pathway molecules by immunoblotting: The expression of NF-κB pathway molecules (inhibitor kappa-Bα: IKBα, phosphorylated IKBα, p65, phosphorylated p65, RelB and COX-2) in SW480 cell-lysates treated with LPS±SPA4 peptide was studied by immunoblotting. For the immunoblotting, 10 μg of total cell-lysate proteins were fractionated on Novex 4-20% Tris-glycine gradient SDS-PAGE gel (Invitrogen, Carlsbad, Calif.) by electrophoresis. Separated proteins were electro-transferred onto a nitrocellulose membrane using iBlot gel transfer device (Invitrogen, Carlsbad, Calif.). The non-specific sites were blocked by incubating the membrane with 7% skimmed milk in Tris-buffered saline with 0.4% TWEEN®-20 (TBST) for 1 hour at room temperature. The blocked membranes were incubated overnight at 4° C. with 1:1000 diluted anti-human antibodies against NF-κB canonical pathway molecules: phosphorylated inhibitor kappa-Bα (IKBα), total-IKBα, p65, RelB (Cell Signaling Technology, Inc., Danvers, Mass.), phosphorylated p65 (Santacruz Biotech, Inc., Santa Cruz, Calif.) and cyclooxygenase-2 (COX-2; Santacruz Biotech, Inc., Santa Cruz, Calif.). The membranes were washed with TBST and incubated at room temperature for 45 minutes with 1:3500 diluted horse-radish peroxidase (HRP)-conjugated-secondary antibody (Sigma-Aldrich, St. Louis, Mo.). The immunoreactive bands were detected by Super Signal West Femto detection reagent (Thermo Fisher Scientific, Barrington, Ill.). In order to ensure equal protein loading in the wells, the membranes were stripped of probing antibodies at 60° C. for 45 minutes using a stripping solution containing 10% SDS, 0.5 M Tris and […] (35 μl/ml), and re-probed with anti-actin antibody (Sigma-Aldrich, MO; 1:1000 in TBST). The immunoblots were imaged using the Ultraquant image acquisition program (UltraLum Inc., Claremont, Calif.). The densitometric readings were obtained for immunoreactive bands with Image J 1.42 q program (NIH, USA). Finally, arbitrary densitometric values for proteins of interest were normalized with those of β-actin."}, "[3]": {"test": "Solubility of purified baboon lung SP-A", "assay_type": "physicochemical"}}, "note": "Where no end group is shown, it is not given here."}
{"substance": "GDFRYSDGTPVNYTNWYRGE [SPA4, GDFRYSDGT PVNYTNWYRGE]", "values": [{"measurement": "colitis symptoms (distension and shortening of the colon)", "setting": "[1]", "value": "reduced the colitis symptoms"}, {"measurement": "DSS-induced serum levels of circulating TNF-α", "setting": "[1]; ELISA", "value": "completely inhibited"}, {"measurement": "body weight", "setting": "[1]; compared to DSS-colitis mice", "value": "recovered"}, {"measurement": "colon length", "setting": "[1]; compared to DSS-colitis mice", "value": "recovered"}, {"measurement": "expression of RelB", "setting": "[2]; LPS-challenged", "value": "No effect"}, {"measurement": "expression of phosphorylated IKBα", "setting": "[2]; LPS-challenged", "value": "No effect"}, {"measurement": "expression of COX-2, short-term treatment", "setting": "[2]; LPS-challenged, 5 hours model", "value": "decrease"}, {"measurement": "expression of phosphorylated p65, short-term treatment", "setting": "[2]; LPS-challenged, 5 hours model", "value": "decrease"}, {"measurement": "expression of total IKBα, short-term treatment", "setting": "[2]; LPS-challenged, 5 hours model", "value": "increase"}, {"measurement": "expression of COX-2, long-term treatment", "setting": "[2]; LPS-challenged, 9 hours model", "value": "remained low"}, {"measurement": "expression of phosphorylated p65, long-term treatment", "setting": "[2]; LPS-challenged, 9 hours model", "value": "remained low"}, {"measurement": "expression of total IKBα, long-term treatment", "setting": "[2]; LPS-challenged, 9 hours model", "value": "decreased"}, {"measurement": "expression of NF-κB signaling molecules, SPA4 peptide alone", "setting": "[2]; no LPS", "value": "did not affect the expression of any of the NF-κB signaling molecules studied, except for COX-2"}]}
{"substance": "SP-A: native surfactant protein-A purified from bronchioalveolar lavage fluid of a normal healthy adult baboon (MWLCPLALTLTLMAASGAACEVKDVCVGSPGIPGTPGSHGLPGRDGRDGVKGDPGPP; listed as Papio cynocephalus)", "values": [{"measurement": "solubility", "setting": "[3]", "value": 51, "unit": "%"}]}
